Measured values: patent publication US6737383B1, “Herbicidal oxadiazolidines” (priority 1999, dated 2004)

Experiments:
bedstraw = test: Test B pre/postemergence bedstraw; format: in vivo, Galium aparine
Method in brief: (§1)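 Response is a visual 0-to-10 score relative to untreated plants, where 0 means no effect and 10 means complete control, taken twelve to sixteen days after application. Treatments went onto soil at planting and onto foliage of 1- to 4-leaf plants, using a surfactant-containing non-phytotoxic solvent.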

cocklebur = test: Test B pre/postemergence cocklebur; format: in vivo, Xanthium strumarium
Method in brief: as §1

corn = test: Test B pre/postemergence corn; format: in vivo, Zea mays
Method in brief: as §1

crabgrass = test: Test B pre/postemergence crabgrass; format: in vivo, Digitaria sanguinalis
Method in brief: as §1

giant foxtail = test: Test B pre/postemergence giant foxtail; format: in vivo, Setaria faberii
Method in brief: as §1

morningglory = test: Test B pre/postemergence morningglory; format: in vivo, Ipomoea hederacea
Method in brief: as §1

pigweed = test: Test B pre/postemergence pigweed; format: in vivo, Amaranthus retroflexus
Method in brief: as §1

rape = test: Test B pre/postemergence rape; format: in vivo, Brassica napus
Method in brief: as §1

soybean = test: Test B pre/postemergence soybean; format: in vivo, Glycine max
Method in brief: as §1

velvetleaf = test: Test B pre/postemergence velvetleaf; format: in vivo, Abutilon theophrasti
Method in brief: as §1

wheat = test: Test B pre/postemergence wheat; format: in vivo, Triticum aestivum
Method in brief: as §1

wild oat = test: Test B pre/postemergence wild oat; format: in vivo, Avena fatua
Method in brief: as §1

purple nutsedge = test: Test B pre/postemergence purple nutsedge; format: in vivo, Cyperus rotundus; settings: Postemergence
Method in brief: as §1

rice = test: Test B flood test rice; format: in vivo, Oryza sativa
Method in brief: (§2)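 Read-out is a visual response score from 0 (no effect) to 10 (complete control), assigned by comparison with untreated controls. Treatment was applied at the 2-leaf stage, and plants stayed in the greenhouse for twelve to sixteen days before scoring.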

smallflower flatsedge = test: Test B flood test smallflower flatsedge; format: in vivo, Cyperus difformis
Method in brief: as §2

duck salad = test: Test B flood test duck salad; format: in vivo, Heteranthera limosa
Method in brief: as §2

[1] = Preemergence, Rate 62 g/ha, scale of 0 to 10 where 0 is no effect and 10 is complete control
[2] = Preemergence, Rate 250 g/ha, scale of 0 to 10 where 0 is no effect and 10 is complete control
[3] = Preemergence, Rate 500 g/ha, scale of 0 to 10 where 0 is no effect and 10 is complete control
[4] = Rate 62 g/ha, Postemergence, scale of 0 to 10 where 0 is no effect and 10 is complete control
[5] = Rate 125 g/ha, Postemergence, scale 0 to 10
[6] = Rate 125 g/ha, Preemergence, scale of 0 to 10 where 0 is no effect and 10 is complete control
[7] = Rate 500 g/ha, Postemergence, scale 0 to 10, 0 no effect, 10 complete control
[8] = Rate 62 g/ha, headed Pre-emergence (flood test species), scale 0 to 10 (0 no effect, 10 complete control)
[9] = Rate 125 g/ha, Pre-emergence, flood test species, scale 0 to 10 where 0 is no effect and 10 is complete control
[10] = Rate 250 g/ha, Pre-emergence, flood-test species, scale 0 to 10, 0 is no effect, 10 is complete control
[11] = Rate 500 g/ha, Pre-emergence, flood test species, scale 0 to 10 (0 no effect, 10 complete control)

Question: What does the source list for `[2H]C([2H])([2H])n1c(=O)on(C(=O)N(c2ccc(F)cc2)C(C)C)c1=O` [Compound 245]?
Answer: Bedstraw plant response rating (bedstraw; [1]): 0; Bedstraw plant response rating (bedstraw; [2]): 9; Plant response rating, Bedstraw (bedstraw; [3]): 10; Bedstraw plant response rating (bedstraw; [4]): 3; Bedstraw plant response rating (bedstraw; [5]): 9; Bedstraw plant response rating (bedstraw; [6]): 2; Plant response rating (0 to 10; 0 is no effect, 10 is complete control), Bedstraw (bedstraw; Rate 250 g/ha, Postemergence): 9; Bedstraw plant response rating (bedstraw; [7]): 9; Cocklebur plant response rating (cocklebur; [1]): 0; Cocklebur plant response rating (cocklebur; [2]): 2; Plant response rating, Cocklebur (cocklebur; [3]): 6; Cocklebur plant response rating (cocklebur; [4]): 0; Cocklebur plant response rating (cocklebur; [5]): 0; Cocklebur plant response rating (cocklebur; [6]): 2; Plant response rating (0 to 10; 0 is no effect, 10 is complete control), Cocklebur (cocklebur; Rate 250 g/ha, Postemergence): 0; Cocklebur plant response rating (cocklebur; [7]): 1; Corn plant response rating (corn; [1]): 3; Corn plant response rating (corn; [2]): 7; Plant response rating, Corn (corn; [3]): 8; Corn plant response rating (corn; [4]): 0; Corn plant response rating (corn; [5]): 4; Corn plant response rating (corn; [6]): 5; Plant response rating (0 to 10; 0 is no effect, 10 is complete control), Corn (corn; Rate 250 g/ha, Postemergence): 5; Corn plant response rating (corn; [7]): 7; Crabgrass plant response rating (crabgrass; [1]): 9; Crabgrass plant response rating (crabgrass; [2]): 9; Plant response rating, Crabgrass (crabgrass; [3]): 10; Crabgrass plant response rating (crabgrass; [4]): 2; Crabgrass plant response rating (crabgrass; [6]): 9; Plant response rating (0 to 10; 0 is no effect, 10 is complete control), Crabgrass (crabgrass; Rate 250 g/ha, Postemergence): 8; Crabgrass plant response rating (crabgrass; [7]): 8; Giant foxtail plant response rating (giant foxtail; [1]): 9; Giant foxtail plant response rating (giant foxtail; [2]): 10; Plant response rating, Giant foxtail (giant foxtail; [3]): 10; Giant foxtail plant response rating (giant foxtail; [4]): 5; Giant foxtail plant response rating (giant foxtail; [6]): 9; Plant response rating (0 to 10; 0 is no effect, 10 is complete control), Giant foxtail (giant foxtail; Rate 250 g/ha, Postemergence): 8; Giant foxtail plant response rating (giant foxtail; [7]): 8; Morningglory plant response rating (morningglory; [1]): 0; Morningglory plant response rating (morningglory; [2]): 6; Plant response rating, Morningglory (morningglory; [3]): 6; Morningglory plant response rating (morningglory; [4]): 5; Morningglory plant response rating (morningglory; [6]): 1; Plant response rating (0 to 10; 0 is no effect, 10 is complete control), Morningglory (morningglory; Rate 250 g/ha, Postemergence): 9; Morningglory plant response rating (morningglory; [7]): 9; Redroot pigweed plant response rating (pigweed; [1]): 8; Redroot pigweed plant response rating (pigweed; [2]): 10; Plant response rating, Redroot pigweed (pigweed; [3]): 10; Redroot pigweed plant response rating (pigweed; [4]): 3; Redroot pigweed plant response rating (pigweed; [6]): 10; Plant response rating (0 to 10; 0 is no effect, 10 is complete control), Redroot pigweed (pigweed; Rate 250 g/ha, Postemergence): 9; Redroot pigweed plant response rating (pigweed; [7]): 9; Rape plant response rating (rape; [1]): 3; Rape plant response rating (rape; [2]): 10; Plant response rating, Rape (rape; [3]): 10; Rape plant response rating (rape; [4]): 0; Rape plant response rating (rape; [6]): 4; Plant response rating (0 to 10; 0 is no effect, 10 is complete control), Rape (rape; Rate 250 g/ha, Postemergence): 2; Rape plant response rating (rape; [7]): 5; Soybean plant response rating (soybean; [1]): 0; Soybean plant response rating (soybean; [2]): 2; Plant response rating, Soybean (soybean; [3]): 8; Soybean plant response rating (soybean; [4]): 2; Soybean plant response rating (soybean; [6]): 2; Soybean plant response rating (soybean; [7]): 5; Velvetleaf plant response rating (velvetleaf; [1]): 7; Velvetleaf plant response rating (velvetleaf; [2]): 10; Plant response rating, Velvetleaf (velvetleaf; [3]): 10; Velvetleaf plant response rating (velvetleaf; [4]): 3; Velvetleaf plant response rating (velvetleaf; [6]): 7; Velvetleaf plant response rating (velvetleaf; [7]): 7; Wheat plant response rating (wheat; [1]): 6; Wheat plant response rating (wheat; [2]): 7; Plant response rating, Wheat (wheat; [3]): 9; Wheat plant response rating (wheat; [4]): 4; Wheat plant response rating (wheat; [6]): 6; Wheat plant response rating (wheat; [7]): 8; Wild oats plant response rating (wild oat; [1]): 3; Wild oats plant response rating (wild oat; [2]): 10; Plant response rating, Wild oats (wild oat; [3]): 10; Wild oats plant response rating (wild oat; [4]): 0; Wild oats plant response rating (wild oat; [6]): 5; Wild oats plant response rating (wild oat; [7]): 8; Nutsedge plant response rating (purple nutsedge; Rate 62 g/ha, scale of 0 to 10 where 0 is no effect and 10 is complete control): 0; Plant response rating (0 to 10; 0 is no effect, 10 is complete control), Nutsedge (purple nutsedge; Rate 250 g/ha): 0; Nutsedge plant response rating (purple nutsedge; Rate 500 g/ha, scale 0 to 10, 0 no effect, 10 complete control): 0; Rice plant response rating (rice; [8]): 0; Rice plant response rating (rice; [9]): 0; Rice plant response rating (rice; [10]): 0; Rice plant response rating (rice; [11]): 0; S. Flatsedge plant response rating (smallflower flatsedge; [8]): 0; S. Flatsedge plant response rating (smallflower flatsedge; [9]): 0; S. Flatsedge plant response rating (smallflower flatsedge; [10]): 0; S. Flatsedge plant response rating (smallflower flatsedge; [11]): 0; Ducksalad plant response rating (duck salad; [8]): 0; Ducksalad plant response rating (duck salad; [9]): 0; Ducksalad plant response rating (duck salad; [10]): 0; Ducksalad plant response rating (duck salad; [11]): 0
